Test results from the NIST ThermoML archive (doi:10.1021/je400539h).
“And” between values parts separate entries of the source, which are not always exact repeats. Equal values may be shown once.

Legend:
[1] = 101 kPa, Liquid
[2] = xn = mol fraction of the nth substance listed; conditions: 101 kPa, Liquid

C1COCCO1 [1,4-dioxane]
[1]
Conditions	mass density [kg/m3]	speed of sound [m/s]	viscosity [mPa·s]
298.15 K	1028.2	1328	1.159
303.15 K	1022.7	1320	1.087
308.15 K	1017.4	1312	1.013
313.15 K	1011.1	1304	0.934

C=COCCCC [1-(ethenyloxy)butane]
[1]
Conditions	mass density [kg/m3]	speed of sound [m/s]	viscosity [mPa·s]
298.15 K	780.2	1096	0.4
303.15 K	774.1	1084	0.387
308.15 K	768.2	1072	0.365
313.15 K	763.3	1060	0.354

COc1ccccc1 [anisole]
[1]
Conditions	mass density [kg/m3]	speed of sound [m/s]	viscosity [mPa·s]
298.15 K	993.6	1396	0.97
303.15 K	989.4	1380	0.917
308.15 K	984.6	1364	0.863
313.15 K	980	1348	0.803

CCCCCCOC(C)=O [hexyl ethanoate]
[1]
Conditions	mass density [kg/m3]	speed of sound [m/s]	viscosity
298.15 K	868.3	1236	1.071 mPa·s
303.15 K	863.9	1216	0.982 mPa·s
308.15 K	859.8	1196	0.898 mPa·s and 0.899 mPa·s
313.15 K	855	1176	0.836 mPa·s

CCCCCCOC(C)=O [hexyl ethanoate] + COc1ccccc1
[2]
Conditions	mass density [kg/m3]	speed of sound [m/s]	viscosity [mPa·s]
298.15 K, x1 = 0.0698	979.8	1376	1.022
298.15 K, x1 = 0.1417	969.7	1360	1.031
298.15 K, x1 = 0.221	959	1344	1.038
298.15 K, x1 = 0.3061	947.7	1328	1.047
298.15 K, x1 = 0.398	935.8	1312	1.054
298.15 K, x1 = 0.4979	923.4	1300	1.058
298.15 K, x1 = 0.606	910.5	1284	1.061
298.15 K, x1 = 0.7254	896.9	1268	1.065
298.15 K, x1 = 0.8556	882.9	1252	1.07
298.15 K, x1 = 1	868.3	1236	1.071
303.15 K, x1 = 0.0698	975	1360	0.932
303.15 K, x1 = 0.1417	964.7	1340	0.94
303.15 K, x1 = 0.221	953.8	1324	0.95
303.15 K, x1 = 0.3061	942.6	1304	0.959
303.15 K, x1 = 0.398	930.8	1288	0.967
303.15 K, x1 = 0.4979	918.4	1272	0.972
303.15 K, x1 = 0.606	905.5	1260	0.975
303.15 K, x1 = 0.7254	891.9	1244	0.98
303.15 K, x1 = 0.8556	878	1232	0.983
303.15 K, x1 = 1	863.9	1216	0.982
308.15 K, x1 = 0.0698	968.1	1340	0.86
308.15 K, x1 = 0.1417	957.8	1320	0.872
308.15 K, x1 = 0.221	947.1	1296	0.878
308.15 K, x1 = 0.3061	936.2	1280	0.886
308.15 K, x1 = 0.398	925	1264	0.894
308.15 K, x1 = 0.4979	913	1248	0.898
308.15 K, x1 = 0.606	900.3	1236	0.901
308.15 K, x1 = 0.7254	886.8	1224	0.903
308.15 K, x1 = 0.8556	873.1	1208	0.902
308.15 K, x1 = 1	859.8	1196	0.898
313.15 K, x1 = 0.0698	961.6	1320	0.779
313.15 K, x1 = 0.1417	951.2	1296	0.791
313.15 K, x1 = 0.221	940.5	1272	0.802
313.15 K, x1 = 0.3061	929.8	1252	0.811
313.15 K, x1 = 0.398	918.6	1236	0.823
313.15 K, x1 = 0.4979	906.8	1220	0.828
313.15 K, x1 = 0.606	894.4	1204	0.833
313.15 K, x1 = 0.7254	881.2	1192	0.838
313.15 K, x1 = 0.8556	867.8	1184	0.84
313.15 K, x1 = 1	855	1176	0.836

C1CCOC1 [tetrahydrofuran]
[1]
Conditions	mass density [kg/m3]	speed of sound [m/s]	viscosity [mPa·s]
298.15 K	881.5	1268	0.45
303.15 K	878.7	1248	0.439
308.15 K	873	1228	0.429
313.15 K	866.9	1212	0.404

C1CCOC1 [tetrahydrofuran] + CCCCCCOC(C)=O
[2], x2 = 0
Conditions	mass density [kg/m3]	speed of sound [m/s]	viscosity [mPa·s]
298.15 K	881.5	1268	0.45
303.15 K	878.7	1248	0.439
308.15 K	873	1228	0.429
313.15 K	866.9	1212	0.404
